Read-outs that look alike come from different tables or passages of the source.
Test system: cancer cell lines from the cancer cell line encyclopedia (CCLE)
Assay: Cell line profiling (CLiP) proliferation experiment
Assay type: cell-based
Parameters: key to Compound Activity (1-inactive;2-active): 1-inactive; 2-active; ACTIVITY_AREA: scale not given here; AMAX: unit not given here
Settings: for IC50: read-out: Crossing Point; for EC50: read-out: Inflection Point
Method: Compound profiling experiment and data analysis was performed as previously described. Data was imported and plotted using the Tibco Spotfire DXP application. Lines were categorized as sensitive, intermediate and refractory as follows: Amax<-40 & Inflection Point <2 ~ Sensitive, Amax>-20 & Inflection Point >10 ~ Refractory, all else were called Intermediate. Cancer Cell line HG-U133 Plus 2 data was processed and normalized as described. […] Five sets of refractory cell lines were generated from the pool of refractory cell lines trying to match the lineage composition of the set of sensitive cell lines. The limma package was used as previously described to perform the statistical comparison.

[1] = UM-UC-3 cell line, urinary_tract, transitional_cell_carcinoma
[2] = VM-CUB1 cell line, urinary_tract, transitional_cell_carcinoma
[3] = VMRC-RCW cell line, kidney, renal_cell_carcinoma
[4] = VMRC-RCZ cell line, kidney, renal_cell_carcinoma
[5] = WSU-DLCL2 cell line, haematopoietic_and_lymphoid_tissue, diffuse_large_B_cell_lymphoma
[6] = YKG1 cell line, central_nervous_system, astrocytoma_Grade_IV
[7] = Z-138 cell line, haematopoietic_and_lymphoid_tissue, mantle_cell_lymphoma
[8] = ZR-75-1 cell line, breast, ductal_carcinoma
[9] = cell line 8-MG-BA, central_nervous_system, astrocytoma_Grade_IV
[10] = cell line 697, haematopoietic_and_lymphoid_tissue, acute_lymphoblastic_leukaemia
[11] = cell line 769-P, kidney, clear_cell_renal_cell_carcinoma
[12] = cell line 786-O, kidney, clear_cell_renal_cell_carcinoma
[13] = cell line 8305C, thyroid, anaplastic_carcinoma
[14] = cell line 23132/87, stomach, adenocarcinoma
[15] = cell line A4/Fuk, haematopoietic_and_lymphoid_tissue, diffuse_large_B_cell_lymphoma
[16] = cell line A-204, soft_tissue, NS
[17] = cell line BDCM, haematopoietic_and_lymphoid_tissue, acute_lymphoblastic_B_cell_leukaemia
[18] = cell line BHY, upper_aerodigestive_tract, squamous_cell_carcinoma
[19] = cell line BICR 6, upper_aerodigestive_tract, squamous_cell_carcinoma
[20] = cell line BICR 22, upper_aerodigestive_tract, squamous_cell_carcinoma
[21] = cell line CAL-29, urinary_tract, transitional_cell_carcinoma
[22] = cell line DOHH-2, haematopoietic_and_lymphoid_tissue
[23] = cell line EB1, haematopoietic_and_lymphoid_tissue
[24] = cell line EB2, haematopoietic_and_lymphoid_tissue
[25] = cell line EM-2 (haematopoietic_and_lymphoid_tissue, blast_phase_chronic_myeloid_leukaemia)
[26] = cell line EM-2, haematopoietic_and_lymphoid_tissue
[27] = cell line EOL-1, haematopoietic_and_lymphoid_tissue
[28] = cell line FaDu, upper_aerodigestive_tract

CC(C)[C@@]12C[C@@H](O)[C@@](C)(O1)[C@@H]1CC[C@@H](C)[C@H]1[C@@H]2OC(=O)/C=C/c1ccccc1 [Englerin B]
ACTIVITY_AREA [1]: 37.41 | AMAX [1]: -54.71 | RESPONSE [1]: INTERMEDIATE | ACTIVITY_AREA [2]: 96.55 | AMAX [2]: -58.31 | RESPONSE [2]: INTERMEDIATE | IC50 (VMRC-RCW (kidney)): > 30 µM | ACTIVITY_AREA [3]: 10.22 | AMAX [3]: -25.65 | IC50 [3]: > 30 µM | IC50 (VMRC-RCZ (kidney)): > 30 µM | ACTIVITY_AREA [4]: 26.25 | AMAX [4]: -46.92 | RESPONSE [4]: INTERMEDIATE | IC50 [4]: > 30 µM | IC50 (WM983B, WM-983B (skin)): > 30 µM | IC50 (WM983B, WM-983B cell line, skin, NS): > 30 µM | ACTIVITY_AREA (WM1799 cell line, skin, NS): 44.8 | AMAX (WM1799 cell line, skin, NS): -38.05 | RESPONSE (WM1799 cell line, skin, NS): INTERMEDIATE | IC50 (WM-88 (skin)): > 30 µM | ACTIVITY_AREA (WM-88 cell line, skin, NS): 55.16 | AMAX (WM-88 cell line, skin, NS): -34.98 | RESPONSE (WM-88 cell line, skin, NS): INTERMEDIATE | IC50 (WM-88 cell line, skin, NS): > 30 µM | ACTIVITY_AREA (WM-115 cell line, skin, NS): 73.29 | AMAX (WM-115 cell line, skin, NS): -15.29 | RESPONSE (WM-115 cell line, skin, NS): REFRACTORY | ACTIVITY_AREA (WM-266-4 cell line, skin, NS): 31.57 | AMAX (WM-266-4 cell line, skin, NS): -38.36 | RESPONSE (WM-266-4 cell line, skin, NS): INTERMEDIATE | ACTIVITY_AREA (WM-793 cell line, skin, NS): 26.94 | AMAX (WM-793 cell line, skin, NS): -46.79 | RESPONSE (WM-793 cell line, skin, NS): INTERMEDIATE | ACTIVITY_AREA (WM-983B cell line, skin, NS): 63.66 | AMAX (WM-983B cell line, skin, NS): -43.12 | RESPONSE (WM-983B cell line, skin, NS): INTERMEDIATE | IC50 (WM-1799, WM1799 (skin)): > 30 µM | IC50 (WM-1799, WM1799 cell line, skin, NS): > 30 µM | IC50 (WS1 (skin)): > 30 µM | IC50 (WS1, WS1 cell line, skin): > 30 µM | ACTIVITY_AREA (WS1 cell line, skin): 21.77 | AMAX (WS1 cell line, skin): -26.6 | RESPONSE (WS1 cell line, skin): INTERMEDIATE | ACTIVITY_AREA [5]: 47.3 | AMAX [5]: -92.11 | RESPONSE [5]: INTERMEDIATE | ACTIVITY_AREA (YAPC cell line, pancreas, NS): 25.5 | AMAX (YAPC cell line, pancreas, NS): -44.67 | RESPONSE (YAPC cell line, pancreas, NS): INTERMEDIATE | ACTIVITY_AREA [6]: 26.45 | AMAX [6]: -20.02 | RESPONSE [6]: INTERMEDIATE | ACTIVITY_AREA (YMB-1 cell line, breast, NS): 29.44 | AMAX (YMB-1 cell line, breast, NS): -63.02 | RESPONSE (YMB-1 cell line, breast, NS): INTERMEDIATE | IC50 (YMB-1 cell line, breast, NS): 21 µM | EC50 (YMB-1 cell line, breast, NS): 21 µM | ACTIVITY_AREA [7]: 90.79 | AMAX [7]: -65.74 | RESPONSE [7]: INTERMEDIATE | ACTIVITY_AREA [8]: 42.06 | AMAX [8]: -53.16 | Compound Activity (1-inactive;2-active) (call per compound): 1 | Compound Activity (1-inactive;2-active) (call per compound, repeated on every line): 1 | Compound Activity (1-inactive;2-active) (call printed on every cell-line row): 1 | ACTIVITY_AREA [9]: 36.6 | AMAX [9]: -52.73 | RESPONSE [9]: INTERMEDIATE | ACTIVITY_AREA (cell line 59M, ovary, NS): 26.55 | AMAX (cell line 59M, ovary, NS): -38.54 | RESPONSE (cell line 59M, ovary, NS): INTERMEDIATE | IC50 (cell line 59M, ovary, NS): > 30 µM | IC50 (cell line 59M): > 30 µM | IC50 [10]: 18.6 µM | EC50 [10]: 18.6 µM | ACTIVITY_AREA [11]: 13.6 | AMAX [11]: -49.16 | RESPONSE [11]: INTERMEDIATE | ACTIVITY_AREA [12]: 46.1 | AMAX [12]: -38.05 | RESPONSE [12]: INTERMEDIATE | Compound Activity (1-inactive;2-active) (cell line 1321N1 (central_nervous_system, astrocytoma)): 1 | ACTIVITY_AREA [13]: 19.13 | AMAX [13]: -42.05 | RESPONSE [13]: INTERMEDIATE | ACTIVITY_AREA [14]: 152.84 | AMAX [14]: -72.44 | RESPONSE [14]: INTERMEDIATE | IC50 [14]: 15.3 µM | EC50 [14]: 15.3 µM | IC50 [15]: 18.1 µM | EC50 [15]: 18.1 µM | ACTIVITY_AREA [16]: 22.22 | AMAX [16]: -45.81 | RESPONSE [16]: INTERMEDIATE | IC50 (cell line AGS, stomach, adenocarcinoma): 5.71 µM | IC50 [17]: 16.9 µM | EC50 [17]: 16.9 µM | IC50 [18]: 23.5 µM | EC50 [18]: 9.33 µM | IC50 [19]: 23 µM | EC50 [19]: 23 µM | IC50 (cell line BICR 16, upper_aerodigestive_tract, squamous_cell_carcinoma): 9.26 µM | IC50 [20]: 18.8 µM | EC50 [20]: 15 µM | IC50 (cell line C32, skin, NS): > 30 µM | IC50 [21]: 15.9 µM | EC50 [21]: 13.1 µM | Compound Activity (1-inactive;2-active) (cell line COLO-800 (skin, NS)): 1 | Compound Activity (1-inactive;2-active) (cell line COV504 (ovary, NS)): 1 | Compound Activity (1-inactive;2-active) (cell line Caov-3 (ovary, adenocarcinoma)): 1 | Compound Activity (1-inactive;2-active) (cell line DBTRG-05MG (central_nervous_system, astrocytoma_Grade_IV)): 1 | Compound Activity (1-inactive;2-active) (cell line DLD-1 (large_intestine, adenocarcinoma)): 1 | ACTIVITY_AREA (cell line DMS 79, lung): 49.26 | AMAX (cell line DMS 79, lung): -10.4 | RESPONSE (cell line DMS 79, lung): REFRACTORY | ACTIVITY_AREA [22]: 33.67 | AMAX [22]: -98.82 | RESPONSE [22]: INTERMEDIATE | Compound Activity (1-inactive;2-active) (cell line DU 145 (prostate, NS)): 1 | ACTIVITY_AREA (cell line DU 145, prostate): 176.13 | AMAX (cell line DU 145, prostate): -54.93 | RESPONSE (cell line DU 145, prostate): INTERMEDIATE | Compound Activity (1-inactive;2-active) (cell line DV-90 (lung, adenocarcinoma)): 1 | ACTIVITY_AREA (cell line DV-90, lung): 23.59 | AMAX (cell line DV-90, lung): -71.93 | RESPONSE (cell line DV-90, lung): INTERMEDIATE | ACTIVITY_AREA [23]: 13.39 | AMAX [23]: -56.14 | RESPONSE [23]: INTERMEDIATE | IC50 [23]: 28.7 µM | ACTIVITY_AREA [24]: 28.45 | AMAX [24]: -57.08 | RESPONSE [24]: INTERMEDIATE | IC50 [24]: 25.8 µM | ACTIVITY_AREA (cell line EBC-1, lung): 56.14 | AMAX (cell line EBC-1, lung): -53.25 | RESPONSE (cell line EBC-1, lung): INTERMEDIATE | Compound Activity (1-inactive;2-active) (cell line EFM-19 (breast, ductal_carcinoma)): 1 | ACTIVITY_AREA (cell line EFM-19, breast): 28.98 | AMAX (cell line EFM-19, breast): -31.96 | RESPONSE (cell line EFM-19, breast): INTERMEDIATE | ACTIVITY_AREA (cell line EFM-192A, breast): 78.14 | AMAX (cell line EFM-192A, breast): -57.28 | RESPONSE (cell line EFM-192A, breast): INTERMEDIATE | Compound Activity (1-inactive;2-active) [25]: 1 | IC50 [25]: > 30 µM | ACTIVITY_AREA [26]: 14.33 | AMAX [26]: -44.27 | RESPONSE [26]: INTERMEDIATE | IC50 [26]: > 30 µM | ACTIVITY_AREA (cell line EN, endometrium): 5.5 | AMAX (cell line EN, endometrium): -23.22 | RESPONSE (cell line EN, endometrium): INTERMEDIATE | IC50 (cell line EN, endometrium): > 30 µM | IC50 (cell line EN): > 30 µM | ACTIVITY_AREA [27]: 60.59 | AMAX [27]: -94.78 | RESPONSE [27]: INTERMEDIATE | ACTIVITY_AREA (cell line ES-2, ovary): 44.96 | AMAX (cell line ES-2, ovary): -44.71 | RESPONSE (cell line ES-2, ovary): INTERMEDIATE | IC50 (cell line ES-2, ovary): > 30 µM | IC50 (cell line ES-2): > 30 µM | ACTIVITY_AREA (cell line ESS-1, endometrium): 41.09 | AMAX (cell line ESS-1, endometrium): -72.67 | RESPONSE (cell line ESS-1, endometrium): INTERMEDIATE | ACTIVITY_AREA (cell line FU-OV-1, ovary): 158.99 | AMAX (cell line FU-OV-1, ovary): -69.93 | RESPONSE (cell line FU-OV-1, ovary): INTERMEDIATE | IC50 (cell line FU-OV-1, ovary): 3.19 µM | ACTIVITY_AREA [28]: 21.14 | AMAX [28]: -61.31 | RESPONSE [28]: INTERMEDIATE | ACTIVITY_AREA (cell line G-361, skin): 55.99 | AMAX (cell line G-361, skin): -32.98 | RESPONSE (cell line G-361, skin): INTERMEDIATE | ACTIVITY_AREA (cell line G-401, soft_tissue): 47.08 | AMAX (cell line G-401, soft_tissue): -74.97 | RESPONSE (cell line G-401, soft_tissue): INTERMEDIATE | ACTIVITY_AREA (cell line G-402, soft_tissue): 90.01 | AMAX (cell line G-402, soft_tissue): -70.25 | RESPONSE (cell line G-402, soft_tissue): INTERMEDIATE

Source: paper PMC4476799, “Englerin A Agonizes the TRPC4/C5 Cation Channels to Inhibit Tumor Cell Line Proliferation” (PLoS ONE, 2015)
